These results are taken from patent US20240425589A1, “CYTOTOXICITY-INDUCING THERAPEUTIC AGENT FOR USE IN TREATMENT OF CANCER” (CHUGAI SEIYAKU KABUSHIKI KAISHA, priority 2021, published 2024).

Assay [1] concerns CLDN6 expression in NIH:OVCAR-3, COV413A, COV413B, COV362. The experiment in a line: CLDN6 expression by FACS after TGF-β1. The class given is cell-based, human. Conditions: TGF-β1 10 ng/mL, four days, vs untreated. The procedure: Next, analyses were performed to determine whether TGF-β1 induces CLDN6 expression in other ovarian cancer cell lines. In addition to NIH:OVCAR-3 cells, COV413A cells (ECACC), COV413B (ECACC), and COV362 (ECACC) were seeded on culture plates, and TGF-β1 was added at 10 ng/mL. Four days later, cells were recovered, and CLDN6 expression was analyzed by FACS analysis.
In the FACS analysis, cells were detached from the culturing flask to produce a cell suspension, these cells were stained using an anti-CLDN6 antibody (CS4135 mIgG1: the heavy-chain and light-chain amino acid sequences are shown in SEQ ID NOs: 210 and 211, respectively, and the heavy-chain and light-chain nucleotide sequences are shown in SEQ ID NOs: 212 and 213, respectively) labeled with Alexa Flour 488 (Alexa Fluor 488 antibody labeling kit, ThermoFisher Scientific), and the amount of CLDN6 expression was analyzed using a flow cytometer (FACSlyric, BD Biosciences). The CS4135 mIgG1 antibody is a chimeric antibody produced by linking the Fc region of a mouse IgG1 to the Fab of the CS4135 antibody.
In general terms: A flow cytometer gives signals particle by particle.

The test system of assay [2] is CLDN6 expression in NIH:OVCAR-3. The experiment in a line: CLDN6 expression by quantitative PCR after TGF-β1. Conditions: TGF-β1 10 ng/ml, 5 days, vs untreated. Type of assay: cell-based, human. Here is the method: Therefore, it was speculated that TGF-β1 induced by treatment with an anticancer agent may affect CLDN6 expression. Accordingly, analyzes were performed to determine whether […] induces CLDN6 expression in the human ovarian cancer cell line (NIH:OVCAR-3, ATCC). Regarding the NIH:OVCAR-3 cells seeded on culture plates, RNAs were purified (RNeasy Mini Kit, QIAGEN) from untreated cells or from cells collected 5 days after addition of TGF-β1 (R & D Systems, 10 ng/ml), and then cDNA synthesis (Superscript IV VILO Master Mix, ThermoFisher) was performed. By using the cDNAs as templates, real-time PCR was performed using CLDN6-specific primers (Power SYBR (registered trademark) Green Master Mix, ThermoFisher) to analyze CLDN6 expression (QuantStudio 12K Flex Real-Time PCR System, ThermoFisher).
The same primers as those in the above-mentioned Example 21.1 were used as the primers for human CLDN6 and for the primers for human GAPDH used as the internal control.

Turning to “TGF-β1: TGF-β1 (R & D Systems) added to cells at 10 ng/ml”, the CLDN6 expression entry in assay [1] is listed as “increased CLDN6 expression”; in assay [2], “Increase in CLDN6 expression was observed”.
